Source: article PMC5440000 (Clinical Interventions in Aging, 2017)

Target: Aβ42 (Homo sapiens, UniProt P05067)
Test: Thioflavin T aggregation assay, […] h at […]°C
Assay type: biochemical

Aβ42, sequence (P05067 672-713): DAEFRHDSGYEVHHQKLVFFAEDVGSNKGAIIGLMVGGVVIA

Row | IC50 [µM] | SMILES
1 | 1.97 | CC1=C(/C=C/C(C)=C/C=C/C(C)=C/C=C/C=C(C)/C=C/C=C(C)/C=C/C(=O)[C@]2(C)C[C@@H](O)CC2(C)C)C(C)(C)CCC1 [cryptocapsin]
2 | 2.29 | CC1=C(/C=C/C(C)=C/C=C/C(C)=C/C=C/C=C(C)/C=C/C=C(C)/C=C/C2=C(C)C[C@@H](O)CC2(C)C)C(C)(C)C[C@H](O)C1 [zeaxanthin]
